# Results reported in publication PMC11123841, “Discovery and Synthesis of Hydroxy-L-Proline Blockers of the Neutral Amino Acid Transporters SLC1A4 (ASCT1) and SLC1A5 (ASCT2)” (Molecules, 2024).
# Entries after “also recorded” stand apart in the source; their conditions may differ.
# What was measured:
# [1] = target: T1, SLC7A10+SLC3A2 (asc-1/4f2) (Homo sapiens, UniProt Q9NS82); assay: [3H]D-serine uptake in oocytes; format: cell-based; conditions: 10 µM BPOHP
# T1 construct: expressed in transfected cells; host or cells: Xenopus laevis oocytes (cRNA co-injection)
# T1 sequence (Q9NS82 1-523): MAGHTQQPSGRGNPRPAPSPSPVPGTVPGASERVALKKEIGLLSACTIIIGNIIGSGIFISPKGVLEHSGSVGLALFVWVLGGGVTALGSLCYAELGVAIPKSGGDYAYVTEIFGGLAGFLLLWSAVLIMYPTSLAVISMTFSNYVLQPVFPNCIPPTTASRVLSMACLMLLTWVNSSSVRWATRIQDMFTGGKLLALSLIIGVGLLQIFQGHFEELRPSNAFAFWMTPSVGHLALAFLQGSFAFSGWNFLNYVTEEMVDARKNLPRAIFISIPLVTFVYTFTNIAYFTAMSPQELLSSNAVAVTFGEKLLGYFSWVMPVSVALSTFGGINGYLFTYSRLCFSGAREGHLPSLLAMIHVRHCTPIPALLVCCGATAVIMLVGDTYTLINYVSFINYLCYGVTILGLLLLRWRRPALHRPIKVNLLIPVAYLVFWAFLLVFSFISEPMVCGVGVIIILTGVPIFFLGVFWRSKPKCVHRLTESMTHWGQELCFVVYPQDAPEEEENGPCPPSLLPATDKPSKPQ
# T1 sequence (P08195 1-529 partner): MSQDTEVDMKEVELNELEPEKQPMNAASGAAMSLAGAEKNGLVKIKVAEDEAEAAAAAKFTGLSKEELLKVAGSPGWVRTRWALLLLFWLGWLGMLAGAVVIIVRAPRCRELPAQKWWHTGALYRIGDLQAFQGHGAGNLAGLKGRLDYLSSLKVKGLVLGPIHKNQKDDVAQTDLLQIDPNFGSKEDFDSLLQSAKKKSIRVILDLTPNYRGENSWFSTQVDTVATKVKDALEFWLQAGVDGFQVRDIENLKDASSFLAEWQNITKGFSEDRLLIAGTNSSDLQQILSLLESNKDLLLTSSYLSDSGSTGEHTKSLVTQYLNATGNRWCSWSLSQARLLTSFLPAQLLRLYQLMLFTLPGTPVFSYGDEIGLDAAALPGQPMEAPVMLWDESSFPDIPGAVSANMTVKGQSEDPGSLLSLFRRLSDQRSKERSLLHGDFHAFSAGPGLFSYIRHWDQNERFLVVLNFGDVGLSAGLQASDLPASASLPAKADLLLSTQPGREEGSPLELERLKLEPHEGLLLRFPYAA
# Description: BPOHP activity was evaluated against the glutamate transporters paralogs within the SLC1A gene family (SLC1A 1–3) as well as at neutral amino acid transporters that share common ligand substrates with the SLC1 family including SLC38A1,2, and 4 (ATA1, ATA2, ATA3) and heteromeric transporters SLC7A10+SLC3A2 (asc-1/4f2). […] Finally, radiolabeled [^3H]D-serine uptake was used to assess the electroneutral SLC7A10+SLC3A2 transporter, in which 10 µM BPOHP had no effect (Figure S3).
# Uptake was halted by washing 3 times with 4 °C ND96 buffer. Oocytes were then lysed in 0.1% Triton X-100, and radioactivity was counted via liquid scintillation. Dose response curves were generated by fitting fractional inhibition (I) to the expression I = Imax × [inhibitor]/([inhibitor] + IC50).
# Figure SM-3A. Representative traces showing 100µM L-Ala currents and co-application of 3µM BPOHP (black bar) with no effect on SLC38A neutral amino acid transporters SLC38A1(ATA1), SLC38A2 (ATA2), and SLC38A4 (ATA3). SM-3B. [3H]D-serine uptake (100nM) in SLC1A4 is blocked by BPOHP (10µM), however, [ 3H]D-serine uptake by co -expressed SLC7A10+SLC3A2 (asc1+4F2) nor SLC3A2 (4f2) expressed (injected) alone was blocked by application of 10µM BPOHP.
# Figure SM-4. Tosic acid approach to compound 12c. (i) Tosylic acid 0.1M in THF 60◦C. (ii) Phenol and NaH in DCM, 40◦C under argon balloon (iii) 10% Pd/C (10% w/eq.), H2, MeOH, H2O, […]
# SLC1A4 = target: T2, SLC1A4 (Homo sapiens, UniProt P43007); assay: Schild analysis of L-alanine dose responses; format: cell-based
# T2 construct: expressed in transfected cells; host or cells: Xenopus laevis oocytes (cRNA injection)
# T2 sequence (P43007 1-532): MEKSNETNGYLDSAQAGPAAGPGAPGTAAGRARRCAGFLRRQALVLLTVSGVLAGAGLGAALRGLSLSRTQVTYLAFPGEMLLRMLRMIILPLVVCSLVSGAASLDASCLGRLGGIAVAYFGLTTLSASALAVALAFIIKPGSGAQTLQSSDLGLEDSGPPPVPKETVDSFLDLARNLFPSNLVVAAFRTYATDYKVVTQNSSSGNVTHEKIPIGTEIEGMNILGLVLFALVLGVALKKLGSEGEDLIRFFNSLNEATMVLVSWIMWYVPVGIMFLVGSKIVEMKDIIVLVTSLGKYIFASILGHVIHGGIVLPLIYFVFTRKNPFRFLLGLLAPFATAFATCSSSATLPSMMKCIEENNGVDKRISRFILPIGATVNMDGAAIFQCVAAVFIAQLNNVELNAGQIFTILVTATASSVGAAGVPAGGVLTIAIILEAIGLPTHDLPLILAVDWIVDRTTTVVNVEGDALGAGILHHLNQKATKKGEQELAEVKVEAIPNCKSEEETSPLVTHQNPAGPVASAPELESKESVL
# Description: We further characterized the highest affinity blocker discovered from our AHPC series, biphenyl-O-hydroxy-proline (BPOHP, 14e). […] A respective right shift in the substrate dose response was apparent with increasing concentrations of BPOHP (Figure 4C).
# Two-electrode voltage clamp (TEVC) transporter currents were recorded with a GeneClamp 500 amplifier and Digidata 1320A analog–digital interface (Molecular Devices, San Jose, CA, USA). Electrodes (0.2–1.0 MΩ) were filled with 3M KCl and the recording chamber was grounded with an agar bridge. Data were acquired with Axograph (v1.7.6) and LabChart (v7) and analyzed with Kaleidagraph software (v4.1) (Synergy, Reading, PA, USA). Uncoupled anion currents associated with the transport of substrate and block of SLC1A4 or SLC1A5 mediated leak conductance were recorded in the presence of Ringer with 50% substitution of NaCl by NaSCN to amplify the non-transported anion conductance.
# Figure 4 BPOHP 14e characterization as a competitive, non-transportable inhibitor. […] (D) A Schild plot showing a linear relationship between [L-ala] dose ratio and four different concentrations of BPOHP, consistent with competitive inhibition.
smiles,measurement,setting,value
O=C(O)[C@H]1NC[C@@H](OCc2ccc(-c3ccccc3)cc2)[C@@H]1O [14e],effect on [3H]D-serine uptake,[1],no effect; also recorded: no inhibition was detected
same,Kb,SLC1A4,120 nM
